Laboratory results published in patent US20130252951A1, “7-HYDROXY-PYRAZOLO[1,5-A] PYRIMIDINE COMPOUNDS AND THEIR USE AS CCR2 RECEPTOR ANTAGONISTS” (Proximagen Limited, priority 2010, published 2013).

Legend:
[1] = target: T1, human CCR2 (Homo sapiens, UniProt P41597); assay: CCR2 binding assay ([125I]-MCP-1 displacement, SPA); design: expressed in transfected cells; host or cells: HEK293 EBNA cells (membrane preparation); settings: human CCR2-HEK293 EBNA membranes
Protocol: The binding of test compounds to the CCR2 receptor was evaluated using [^125I]-MCP-1.
Briefly, 25 μL assay buffer (25 mM HEPES, pH 7.4, 5 mM MgCl2, 1 mM CaCl2, 0.2% (w/v) protease free BSA, 100 μg/mL bacitracine and 0.1 M NaCl) was placed into total binding wells and 25 μL unlabelled ligand (0.4 μM MCP-1, for determination of non-specific binding) was placed into non-specific binding wells. [^125I]-MCP-1 (25 μL), human CCR2-HEK293 EBNA membrane preparation (25 μL) and SPA beads (25 μL) were added to all the wells. The wells were incubated for 4 h and counted for 1 min/well in a Perkin Elmer Topcount NXT.
The SPA beads (wheat germ agglutinin (WGA) PEI Type A PVT 0.25 mg/well) were prepared by reconstituting lyophilised bead to 100 mg/mL with de-ionised water and further diluting in assay buffer to give 10 mg/mL. The radioligand ([^125I]-MCP-1) was prepared by dilution in assay buffer to give 0.32 μCi/mL, ˜17600 dpm/25 μL (specific activity 2000 Ci/mMol). The final assay concentration was 0.04 nM. The human CCR2-HEK293 EBNA cells membranes were prepared as follows: cells were spun down at 1000×g for 3 min at room temperature, washed in PBS and spun down again. The cells were then homogenised with an Ultra Turrax at setting 6 in 5-10 mL ice cold buffer A (EDTA 10 mM, HEPES 10 mM, pH 7.4) for 10 sec. Following dilution with further ice cold buffer A and spinning at 20000×g for 20 min at 4° C., the mixture was re-homogenised in 5-10 mL ice cold buffer B (EDTA 0.1 mM, HEPES 10 mM, pH 7.4) and spun at 20000×g for 20 min at 4° C. The protein was assayed and re-suspended in buffer C (Buffer B+1 tablet/10 mL of Roche protease inhibitor cocktail) at 3 mg/mL. Before use, the membranes were thawed and diluted with assay buffer to give 80 μg/mL (2 μg/well).
Specific binding was determined as the difference between total binding in the absence of antagonist and binding in the presence of excess antagonist (non-specific binding). Data was expressed as a percentage of specific binding and analysed by a 4-parameter logistic equation using GraphPad Prism 4 software (GraphPad, San Diego, Calif., USA) to yield IC50 values. Ki values were calculated from the IC50 values using the correction for radioligand concentration.

[2] = target: T1, human CCR2; assay: CCR2 functional calcium assay (FLIPR calcium flux, hMCP-1 challenge); format: cell-based; design: expressed in transfected cells; host or cells: HEK293 EBNA cells; settings: HEK293 EBNA cells transfected with human CCR2, hMCP-1 challenge; read-out: Functional CCR2 fKi
Method in brief: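 FLIPR Fluo-4 calcium flux in HEK293 EBNA cells transfected with human CCR2, with non-transfected cells as control. Compounds (10-point 1:3 curves, typically 30 μM to 0.5 nM) were added in HBSS/20 mM HEPES/0.1% BSA, pH 7.4, followed by MCP-1 challenge. Peak minus basal signal was expressed as % of EC50 MCP-1 response.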

[3] = tested on: rat model of STZ induced diabetes; assay: rat model of STZ induced diabetes (diabetic nephropathy), kidney histology; format: in vivo; settings: male Wistar rats, STZ 50 mg/kg i.p., 8 mg/kg/day oral, kidney day 43, p<0.01 vs STZ-vehicle
Excerpt: Diabetic nephropathy is a common manifestation of renal disease and is defined as the progressive development of renal insufficiency in the setting of hyperglycaemia. This sustained hyperglycaemia causes glomerular mesangial expansion through increased synthesis and decreased degradation of extracellular matrix protein, which progressively destroys the glomerular capillaries, eventually leading to proteinuria and renal failure. Animal models for diabetes can be employed for assessing the mechanisms of the disease, screening potential therapies for the treatment of this condition, and evaluation of therapeutic options. […] A single intraperitoneal injection of STZ in rats results in selective damage of the insulin producing beta cells in the pancreas causing insulin deficiency and subsequent hyperglycaemia after 48 hours. Over the time course of this procedure which can last from 3 weeks to many months, animals develop modest elevations in albuminuria and serum creatinine and some of the histological lesions associated with diabetic nephropathy. The aim of this study was to determine the efficacy of a test compound CCR2 antagonist (Example 33) in a rat model of STZ induced diabetes.
Male Wistar rats were given daily oral administration of the vehicle (30% w/v hydroxypropyl-beta-cyclodextrin (HPBC)) in saline to groups 1 and 3, or oral administration of Example 33 (8 mg/kg/day) to group 2, from 3 days prior to administration of streptozotocin. On day 0 streptozotocin was injected (50 mg/kg body wt, i.p. dissolved in 20 mM sodium citrate buffer) to rats in groups 1 and 2 (STZ groups). Group 3 rats (sham) were injected with an equivalent volume of 20 mM sodium citrate buffer. On day 43 all animals were culled, the left kidney was removed and cut in a sagittal section. These tissue samples were fixed by immersion in 10% (wt/vol) formaldehyde in phosphate-buffered saline (PBS) (0.01 mol/L, pH 7.4) at room temperature. […] The measured parameters were 1) monocyte and macrophage infiltration, 2) tubular damage and 3) glomerular damage. […]

T1 sequence (P41597 whole entry): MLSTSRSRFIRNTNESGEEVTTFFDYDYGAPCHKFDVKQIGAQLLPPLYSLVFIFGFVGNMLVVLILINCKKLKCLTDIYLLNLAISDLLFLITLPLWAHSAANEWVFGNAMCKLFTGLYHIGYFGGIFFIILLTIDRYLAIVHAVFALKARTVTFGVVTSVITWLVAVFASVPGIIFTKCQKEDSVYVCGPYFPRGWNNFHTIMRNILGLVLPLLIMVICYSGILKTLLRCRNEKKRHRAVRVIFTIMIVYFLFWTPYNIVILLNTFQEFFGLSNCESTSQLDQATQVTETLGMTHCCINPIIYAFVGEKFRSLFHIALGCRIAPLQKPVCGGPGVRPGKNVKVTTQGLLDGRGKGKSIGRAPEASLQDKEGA

Ki [1]: 10 to 100 nM
Ki [2]: < 10 nM
Compound: Oc1c(Cc2cc(F)cc(C(F)(F)F)c2)c(C2CC2)nc2ccnn12 [Example 33, 5-Cyclopropyl-6-{[3-fluoro-5-(trifluoro-methyl)phenyl]methyl}pyrazolo[1,5-a]-pyrimidin-7-ol]
glomerular damage (semiquantitative score) [3]: statistically significant effect reducing
monocyte and macrophage infiltration (semiquantitative score) [3]: statistically significant effect reducing
tubular damage (semiquantitative score) [3]: statistically significant effect reducing
